Read-outs that look alike come from different tables or passages of the source.
What was measured:
Type in all cases: cell-based, Hepatitis C virus
HCV genotype 3a replicon = assay: Transient replicon assay with engineered substitutions; conditions: for EC50: Hepatitis C virus
Protocol: (§1) Mutagenesis was performed using a Change-IT multiple-mutation site-directed mutagenesis kit (USB, Cleveland, OH) or by cloning a synthesized DNA fragment encoding the amino acid substitution(s). The genotype 1a and 1b replicon shuttle vectors used for the introduction of the substitutions of interest in the NS3, NS5A, or NS5B gene for transient-transfection assays have been described previously ([28], [33]). The replicon shuttle vectors used for the introduction of substitutions in NS3 genes from other genotypes were similar to the stable replicon cell line constructs described above, except for the absence of the neo gene. After mutagenesis, the plasmids were linearized and RNA was transcribed and then used to transfect Huh-7 cells. Inhibition of HCV replication by the HCV inhibitors was measured by luciferase assay, as described above. Replication efficiency was calculated as a percentage of wild-type replication, as described previously ([28]).

HCV genotype 1b replicon = assay: as above
Protocol: as §1

HCV genotype 2b replicon = assay: as above; conditions: for EC50: Hepatitis C virus
Protocol: as §1

HCV genotype 2a replicon = assay: as above
Protocol: as §1

HCV genotype 4a replicon = assay: as above; conditions: for EC50: Hepatitis C virus
Protocol: as §1

HCV genotype 4d replicon = assay: as above; conditions: for EC50: Hepatitis C virus, 96 h
Protocol: as §1

HCV genotype 6a replicon = assay: as above; conditions: for EC50: Hepatitis C virus
Protocol: as §1

HCV genotype 5a replicon = assay: as above
Protocol: as §1

HCV genotype 1a replicon = assay: as above
Protocol: as §1

[1] = system: HCV subgenomic stable replicon GT3a; assay: microbe, parasite or virus in culture; conditions: Hepatitis C virus, Huh-7, 0% human plasma, read-out: Mean EC50 ± SD
From the text: (§2) Five of these nine cell lines have been described previously, including those transfected with genotypes 1a H77, 1b Con1, 3a, 4a, and 6a ([28]). […] The genotype 2b and 6e NS3 sequences were each synthetically constructed based on a consensus sequence derived from the alignment of 15 genotype 2b and 4 genotype 6e sequences, respectively. All replicon constructs were bicistronic subgenomic replicons similar to those described by Bartenschlager and coworkers, and the replicon cell lines were generated by introducing these constructs into cells of an Huh-7 human hepatoma-derived cell line ([50]). The inhibitory effect of the PIs on HCV replication in replicon cells was determined in Dulbecco's modified Eagle medium containing 5% fetal bovine serum with or without 40% human plasma (Bioreclamation, Westbury, NY). The EC50s were determined using nonlinear regression curve fitting as described previously ([33]).

[2] = system: HCV subgenomic stable replicon GT6e; assay: microbe, parasite or virus in culture; conditions: Hepatitis C virus, Huh-7, 0% human plasma, read-out: Mean EC50 ± SD
From the text: as §2

[3] = system: HCV subgenomic stable replicon GT6a; assay: Stable HCV replicon luciferase assay in Huh-7 cells; conditions: Hepatitis C virus, Huh-7, 0% human plasma, read-out: Mean EC50 ± SD
From the text: (§3) . Five of these nine cell lines have been described previously, including those transfected with genotypes 1a H77, 1b Con1, 3a, 4a, and 6a ([28]). The other four cell lines were established by transfecting cells with a nonchimeric genotype 2a JFH-1 replicon (GenBank accession number AB047639), two genotype 2a JFH-1 chimeric replicons containing either a genotype 2b NS3 protease domain (N-terminal 251 amino acids) or a sequence encoding full-length NS3 through the first 39 amino acids of NS5B from genotype 5a (strain SA13), and one chimeric replicon with a genotype 1b Con1 backbone containing full-length NS3 and NS4A sequences from genotype 6e. The genotype 2b and 6e NS3 sequences were each synthetically constructed based on a consensus sequence derived from the alignment of 15 genotype 2b and 4 genotype 6e sequences, respectively. All replicon constructs were bicistronic subgenomic replicons similar to those described by Bartenschlager and coworkers, and the replicon cell lines were generated by introducing these constructs into cells of an Huh-7 human hepatoma-derived cell line ([50]). The inhibitory effect of the PIs on HCV replication in replicon cells was determined in Dulbecco's modified Eagle medium containing 5% fetal bovine serum with or without 40% human plasma (Bioreclamation, Westbury, NY). The EC50s were determined using nonlinear regression curve fitting as described previously ([33]).

[4] = system: HCV subgenomic stable replicon GT4a; assay: as above; conditions: Hepatitis C virus, Huh-7, 0% human plasma, read-out: Mean EC50 ± SD
From the text: as §3

Cc1cnc(C(=O)N[C@H]2CCCCC/C=C\[C@@H]3C[C@@]3(C(=O)NS(=O)(=O)C3CC3)NC(=O)[C@@H]3C[C@@H](Oc4nc5ccccc5c5ccccc45)CN3C2=O)cn1 [Paritaprevir]
Fold change (HCV genotype 3a replicon; 3a NS3 A156G vs wild-type replicon): 57 fold | Fold change (HCV genotype 3a replicon; 3a NS3 Q168R vs wild-type replicon): 29 fold | Fold change (HCV genotype 3a replicon; 3a NS3 R155K vs wild-type replicon): 5.2 fold | EC50 (HCV genotype 3a replicon; read-out: Mean EC50 ± SD, 3a NS3 A156G): 1770 nM | EC50 (HCV genotype 3a replicon; read-out: Mean EC50 ± SD, 3a NS3 Q168R): 912 ± 221 nM | EC50 (HCV genotype 3a replicon; read-out: Mean EC50 ± SD, 3a NS3 R155K): 161 ± 20 nM | EC50 (HCV genotype 3a replicon; read-out: Mean EC50 ± SD, 3a wild type, transient transfection): 31 ± 7 nM | Fold change (HCV genotype 1b replicon; 1b NS3 A156T vs wild-type replicon): 7.4 fold | Fold change (HCV genotype 1b replicon; 1b NS3 A156V vs wild-type replicon): 21 fold | Fold change (HCV genotype 1b replicon; 1b NS3 D168A vs wild-type replicon): 27 fold | Fold change (HCV genotype 1b replicon; 1b NS3 D168E vs wild-type replicon): 4.4 fold | Fold change (HCV genotype 1b replicon; 1b NS3 D168V vs wild-type replicon): 159 fold | Fold change (HCV genotype 1b replicon; 1b NS3 R155K vs wild-type replicon): 40 fold | Fold change (HCV genotype 1b replicon; 1b NS3 T54A vs wild-type replicon): 0.8 fold | Fold change (HCV genotype 1b replicon; 1b NS3 V55A vs wild-type replicon): 0.6 fold | Fold change (HCV genotype 1b replicon; 1b NS3 V170A vs wild-type replicon): 0.8 fold | Fold change (HCV genotype 2b replicon; 2b NS3 A156T vs wild-type replicon): 3.0 fold | Fold change (HCV genotype 2b replicon; 2b NS3 A156V vs wild-type replicon): 5.0 fold | Fold change (HCV genotype 2b replicon; 2b NS3 D168A vs wild-type replicon): 11 fold | Fold change (HCV genotype 2b replicon; 2b NS3 D168E vs wild-type replicon): 2.2 fold | Fold change (HCV genotype 2b replicon; 2b NS3 D168V vs wild-type replicon): 9.4 fold | EC50 (HCV genotype 2b replicon; read-out: Mean EC50 ± SD, 2b NS3 A156T): 338 ± 86 nM | EC50 (HCV genotype 2b replicon; read-out: Mean EC50 ± SD, 2b NS3 A156V): 573 ± 204 nM | EC50 (HCV genotype 2b replicon; read-out: Mean EC50 ± SD, 2b NS3 D168A): 1310 nM | EC50 (HCV genotype 2b replicon; read-out: Mean EC50 ± SD, 2b NS3 D168E): 256 ± 58 nM | EC50 (HCV genotype 2b replicon; read-out: Mean EC50 ± SD, 2b NS3 D168V): 1070 nM | EC50 (HCV genotype 2b replicon; read-out: Mean EC50 ± SD, 2b wild type, transient transfection): 114 ± 24 nM | Fold change (HCV genotype 2a replicon; 2a NS3 A156T vs wild-type replicon): 1.7 fold | Fold change (HCV genotype 2a replicon; 2a NS3 A156V vs wild-type replicon): 2.2 fold | Fold change (HCV genotype 2a replicon; 2a NS3 D168A vs wild-type replicon): 18 fold | Fold change (HCV genotype 2a replicon; 2a NS3 D168E vs wild-type replicon): 5.3 fold | Fold change (HCV genotype 2a replicon; 2a NS3 D168V vs wild-type replicon): 13 fold | Fold change (HCV genotype 4a replicon; 4a NS3 A156T vs wild-type replicon): 40 fold | Fold change (HCV genotype 4a replicon; 4a NS3 A156V vs wild-type replicon): 155 fold | Fold change (HCV genotype 4a replicon; 4a NS3 D168H vs wild-type replicon): 252 fold | Fold change (HCV genotype 4a replicon; 4a NS3 D168V vs wild-type replicon): 323 fold | Fold change (HCV genotype 4a replicon; 4a NS3 R155C vs wild-type replicon): 59 fold | EC50 (HCV genotype 4a replicon; read-out: Mean EC50 ± SD, 4a NS3 A156T): 1.9 ± 0.25 nM | EC50 (HCV genotype 4a replicon; read-out: Mean EC50 ± SD, 4a NS3 A156V): 7.4 ± 1.6 nM | EC50 (HCV genotype 4a replicon; read-out: Mean EC50 ± SD, 4a NS3 D168H): 12 ± 3 nM | EC50 (HCV genotype 4a replicon; read-out: Mean EC50 ± SD, 4a NS3 D168V): 16 ± 1.9 nM | EC50 (HCV genotype 4a replicon; read-out: Mean EC50 ± SD, 4a NS3 R155C): 2.8 ± 0.25 nM | EC50 (HCV genotype 4a replicon; read-out: Mean EC50 ± SD, 4a wild type, transient transfection): 0.048 ± 0.01 nM | Fold change (HCV genotype 4d replicon; 4d NS3 D168V vs wild-type replicon): 312 fold | EC50 (HCV genotype 4d replicon; read-out: Mean EC50 ± SD, 4d NS3 D168V): 4.7 ± 0.91 nM | EC50 (HCV genotype 4d replicon; read-out: Mean EC50 ± SD, 4d wild type, transient transfection): 0.015 ± 0.001 nM | Fold change (HCV genotype 6a replicon; 6a NS3 D168A vs wild-type replicon): 1,347 fold | Fold change (HCV genotype 6a replicon; 6a NS3 D168H vs wild-type replicon): 2,490 fold | Fold change (HCV genotype 6a replicon; 6a NS3 D168V vs wild-type replicon): 3,336 fold | EC50 (HCV genotype 6a replicon; read-out: Mean EC50 ± SD, 6a NS3 D168A): 162 ± 80 nM | EC50 (HCV genotype 6a replicon; read-out: Mean EC50 ± SD, 6a NS3 D168H): 299 ± 87 nM | EC50 (HCV genotype 6a replicon; read-out: Mean EC50 ± SD, 6a NS3 D168V): 400 ± 139 nM | EC50 (HCV genotype 6a replicon; read-out: Mean EC50 ± SD, 6a wild type, transient transfection): 0.12 ± 0.04 nM | Fold change (HCV genotype 5a replicon; 5a NS3 D168E vs wild-type replicon): 23 fold | Fold change (HCV genotype 5a replicon; 5a NS3 D168H vs wild-type replicon): 558 fold | Fold change (HCV genotype 1a replicon; 1a NS3 A156T vs wild-type replicon): 17 fold | Fold change (HCV genotype 1a replicon; 1a NS3 D168A vs wild-type replicon): 50 fold | Fold change (HCV genotype 1a replicon; 1a NS3 D168E vs wild-type replicon): 14 fold | Fold change (HCV genotype 1a replicon; 1a NS3 D168V vs wild-type replicon): 96 fold | Fold change (HCV genotype 1a replicon; 1a NS3 F43L vs wild-type replicon): 20 fold | Fold change (HCV genotype 1a replicon; 1a NS3 Q80K vs wild-type replicon): 2.8 fold | Fold change (HCV genotype 1a replicon; 1a NS3 R155K vs wild-type replicon): 37 fold | Fold change (HCV genotype 1a replicon; 1a NS3 T54S vs wild-type replicon): 0.4 fold | Fold change (HCV genotype 1a replicon; 1a NS3 V36M vs wild-type replicon): 2.1 fold | Fold change (HCV genotype 1a replicon; 1a NS3 V55I vs wild-type replicon): 1.0 fold | Fold change (HCV genotype 1a replicon; 1a NS3 Y56H vs wild-type replicon): 2.9 fold | EC50 [1]: 19 ± 5.2 nM | EC50 [2]: 0.44 ± 0.17 nM | EC50 [3]: 0.69 ± 0.09 nM | EC50 [4]: 0.09 ± 0.03 nM

From paper PMC5740381 (Antimicrobial Agents and Chemotherapy, 2017)
